We go through 7 compounds from patent publication US20130184273A1, “BICYCLIC PYRIMIDINES” (Bayer Intellectual Property GmbH, priority 2010, published 2013).

Experiment [1] deals with KPL-4 breast cancer cell line. The experiment is described as follows: Tumor cell proliferation assay (CellTiter-Glo). It is filed as cell-based. As to conditions: KPL4, 72 h drug exposure. Here is the method: Compounds were tested in a cell-based assay that measures the capacity of the compounds to inhibit tumour cell proliferation following a 72 h drug exposure. Cell viability is determined using CellTiter-Glow® (CTG, Promega, cat #G7571/2/3). The CellTiter-Glo® Luminescent Cell Viability Assay is a homogeneous method to determine the number of viable cells in culture. Detection is based on using the luciferase reaction to measure the amount of ATP from viable cells. The amount of ATP in cells correlates with cell viability. Within minutes after a loss of membrane integrity, cells lose the ability to synthesize ATP, and endogenous ATPases destroy any remaining ATP; thus the levels of ATP fall precipitously.
Cells were plated at 3000-5000 cells/well (depending on the cell lines) in 90 μL growth medium on MTPs (Corning; #3603, black plate, clear flat bottom). For each cell line assayed, cells were plated onto a separate plate for determination of […] at t=0 hour and t=72 hour time points. Following overnight incubation at 37° C., chemiluminescence values for the t=0 samples were determined after adding 10 μl medium and 100 μl CTG solution according to manufacture protocol. Plates for the t=72 hour time points were treated with compounds diluted into growth medium at ten times final concentration added in 10 μL to the cell culture plate. Cells were then incubated for 72 hours at 37° C. Chemiluminescence values for the t=72 hour samples were determined. […] Experiments were controlled using a reference compound as standard.

Experiment [2] has as its system p-AKT S473 in PC3 human prostate tumours. Put plainly: In vivo xenograft mechanism of action study. As to conditions: PC3 tumours xenografted onto nude mice, treated once with 50 mg/kg p.o., 5 hours post treatment. On the set-up: species or system athymic nude mice. The source says: To this extent PC3 human prostate tumours were xenografted onto athymic nude mice. PC3 tumour cells were cultivated according to ATCC protocols in recommended media contained 10% FCS and harvested for transplantation in a subconfluent (70%) state. 3×10^6 tumour cells suspended in 50% Matrigel were subcutaneously implantated into the inguinal region of male mice. Tumours were allowed to grow to the predetermined size of 60-80 mm^2. When the tumours were approximately in size, the animals were randomized to treatment and control groups (groups size: 9 animals) and treatment was started. Animals were treated once with 50 mg/kg compound or vehicle per oral administration (p.o.) carried out via a gastric tube. Treatment of each animal was based on individual body weight. At 2, 5 and 24 hours post treatment 3 animals each were sacrificed and the PC3 tumours excised. Tumour samples of approximately 5×5×5 mm were lysed on ice in MSD lysis buffer in the presence of protease and phosphatase inhibitors using Tissue Lyzer (Qiagen, Germany). The levels of p-AKT S473 in extracts from tumour tissue were analysed in an ELISA based assay. This assay is based on the “Akt Duplex” of the MULTI-SPOT® Assay System (Fa. Meso Scale Discovery, Cat #N41100B-1) following manufacturers instructions. Each assay used 20 μg of protein extract and measured total AKT and p-AKT content simultaneously in one well. All measurements where at least done in duplicates and confirmed by independent repetition.
Values for P-AKT are expressed as percentage of P-AKT level compared to total-AKT content of the extracts. Vehicle treated tumours were analyzed to determine the basal level of P-AKT in this model and used as a normalization control to determine the % P-AKT relative to vehicle levels.

The test system of experiment [3] is phospho-AKT at S473 in KPL4 breast tumour cell line. The experiment is described as follows: Cellular p-AKT1/2/3-S473 assay. As to conditions: KPL4 cells, treated with compounds for 2 hours; read-out: pAKT-S743 median IC50. In kind it is cell-based. On the procedure:
The molecular mechanism of action was investigated in a set of experiments to assess the inhibition of the PI3K-AKT-mTOR pathway in responsive cell lines such as KPL4 breast tumour cell line (PIK3CAH1047R, HER20/E and hormone independent). The phospho-substrates of PI3K-AKT-mTOR axis were used as the read-outs to reflect pathway inhibition. Cells were seeded at 60-80% confluency per well in 96-well cell culture plates. After overnight incubation at 37° C. 5% CO2, cells were treated with compounds and vehicle at 37° C. for 2 hours. Thereafter, cells were lysed in 150 μl lysis buffer and the levels of phospho-AKT at T308 and S473 and p-4E-BP1 at T70 sites were determined with the corresponding AlphaScreen® SureFire® assay kits (Perkin Elmer: 4E-BP1 Assay Kit Cat # TRG4E2S10K; Akt 1/2/3 p-Ser 473 #TGRA4S500 and Akt 1/2/3 p-Thr 308 #TGRA3S500 as well as IgG detection Kit #6760617M) as described in the manuals. All measurements where at least done in duplicates and confirmed by independent repetition.
Alternatively pAKT-S473 was measured using the “Akt Duplex” of the MULTI-SPOT® Assay System (Fa. Meso Scale Discovery, Cat#N41100B-1) following manufacturers instructions. Each assay used 20 μg of protein extract and measured total AKT and p-AKT content simultaneously in one well. All measurements where at least done in duplicates and confirmed by independent repetition. Values for P-AKT are expressed as percentage of P-AKT level compared to total-AKT content of the extracts.

What is called IC50 is the concentration that gives 50% inhibition. `Cc1nc2nc(-c3ccc(C4(N)CCC4)cc3)c(-c3ccccc3)cn2n1` [Example 1-0, 1-[4-(2-methyl-6-phenyl-[1,2,4]triazolo[1,5-a]pyrimidin-5-yl)-phenyl]-cyclobutylamine]: inhibition in experiment [1] was half-maximal at 3220 nM (IC50). For the same compound, the “P-AKT % relative to control at 5 hours” value in experiment [2] amounted to 3.2%.
The matching figures for `Cc1cn2cc(-c3ccccc3)c(-c3ccc(C4(N)CCC4)cc3)nc2n1` [Example 2-1, 1-[4-(2-Methyl-6-phenyl-imidazo[1,2-a]pyrimidin-7-yl)-phenyl]-cyclobutylamine]: 1970 nM and 6.7%.
As to `CS(=O)(=O)c1ccc(-c2cnc3nc(-c4ccc(C5(N)CCC5)cc4)c(-c4ccccc4)cn23)cc1` [Example 4-0, 1-{4-[3-(4-Methansulfonyl-phenyl)-6-phenyl-imidazo[1,2-a]pyrimidin-7-yl]-phenyl}-cyclobutylamine], the IC50 came to 230 nM in experiment [3] and 1270 nM in experiment [1].
As for `Cn1cc(-c2nc3nc(-c4ccc(C5(N)CCC5)cc4)c(-c4ccccc4)cn3n2)cn1` [Example 5-2, 1-{4-[2-(1-methyl-1H-pyrazol-4-yl)-6-phenyl-[1,2,4]triazolo[1,5-a]pyrimidin-5-yl]-phenyl}-cyclobutylamine], the IC50 in experiment [3] turned out to be 130 nM; in experiment [1], 930 nM. Besides, the “P-AKT % relative to control at 5 hours” value in experiment [2] came out at 17.9%.
Turning to `NC1(c2ccc(-c3nc4ncc(-c5ccc(F)cc5)n4cc3-c3ccccc3)cc2)CCC1` [Example 6-0, 1-{4-[3-(4-Fluorophenyl)-6-phenyl-imidazo[1,2-a]pyrimidin-7-yl]-phenyl}-cyclobutylamine], the values for the IC50 in experiment [3] and in experiment [1] were 920 nM and 2540 nM, respectively.
The matching figures for `NC(=O)c1cccc(-c2cnc3nc(-c4ccc(C5(N)CCC5)cc4)c(-c4ccccc4)cn23)c1` [Example 6-2, 3-{7-[4-(1-Amino-cyclobutyl)-phenyl]-6-phenyl-imidazo[1,2-a]pyrimidin-3-yl}-benzamide]: 1150 nM and 10000 nM.
The matching figures for `NC1(c2ccc(-c3nc4ncc(-c5cn[nH]c5)n4cc3-c3ccccc3)cc2)CCC1` [Example 6-3, 1-{4-[6-Phenyl-3-(1H-pyrazol-4-yl)-imidazo[1,2-a]pyrimidin-7-yl]-phenyl}-cyclobutylamine]: 240 nM and 5110 nM.
